We go through five compounds from article PMC4046051, “Two M-T hook residues greatly improve the antiviral activity and resistance profile of the HIV-1 fusion inhibitor SC29EK” (Retrovirology, 2014).

Peptide text beside a SMILES is read from it. Where only a bound is given, the exact number is not on record here.

Assay type in all cases: cell-based
In assay [1] the test system is HIV-1NL4-3 pseudovirus. Particulars: 100 TCID50, TZM-bl cells, 48 h, luciferase, mean ± SD of three independent experiments, SD, read-out: IC50 Entry. As for the experimental part:
(§1) The inhibition of peptides on the HIV-1 entry was determined by single-cycle infection assay as described previously. Briefly, HIV-1 pseudovirus was generated by cotransfecting 293 T cells with an Env-expressing plasmid and a backbone plasmid pSG3^Δenv that encodes Env-defective, luciferase-expressing HIV-1 genome. The supernatants were harvested and filtered 48 h after transfection and 50% tissue culture infectious dose (TCID50) was determined in TZM-bl cells. The peptides were prepared with 3-fold dilutions and mixed with 100 TCID50 viruses and then incubated 1 h at room temperature. The mixture was added to TZM-bl cells (10^4/well) and incubated 48 h at 37°C. The luciferase activity was measured using luciferase assay reagents and a Luminescence Counter (Promega).

The test system of assay [2] is wild-type HIV-1NL4-3. Particulars: wild-type HIV-1NL4-3, 100 TCID50, TZM-bl cells, two days, luciferase; mean ± SD of three independent experiments; SD; read-out: IC50 Replication. As for the experimental part:
The inhibition of peptides on HIV-1 replication was determined by a molecular cloned wild-type HIV-1NL4–3. In brief, the virus stock was harvested and quantified 48 h post-transfection. 100 TCID50 viruses were used to infect TZM-bl cells in the presence or absence of serially diluted peptides. Two days post-infection, the cells were harvested and lysed in reporter lysis buffer and the luciferase activity was measured as described above.

Assay [3] deals with molecular clone of HIV-1NL4-3. Briefly: In vitro selection of HIV-1 resistance in MT-4 cells. Particulars: 1.5-2 fold escalating concentrations, 22 passages in 4 months. As for the experimental part:
The in vitro selection of HIV-1 resistance to peptide inhibitors was performed as described previously. Briefly, MT-4 cells were seeded at 1 × 10^4 in RPMI 1640 medium containing 10% fetal bovine serum on 12-well plates. The molecular clone of HIV-1NL4–3 was used to infect the cells in the presence or absence of diluted peptide inhibitors (SC29EK, MT-SC29EK, SC22EK and MT-SC22EK). The cells were incubated at 37°C with 5% CO2 until an extensive cytopathic effect was observed. The culture supernatants were harvested and used for next passage on fresh MT-4 cells with 1.5-2 fold increasing concentrations of peptide. Cells and supernatant were harvested at regular time points and stored at -80°C.

Assay [4] deals with HIV-1 NL4-3 N43K. As to the kind of experiment: Inhibition of T20-resistant HIV-1 variants: N43K. The following applies: mean ± SD of three independent experiments, SD. As for the experimental part:
as §1

The test system of assay [5] is HIV-1 NL4-3 I37T. As to the kind of experiment: Inhibition of T20-resistant HIV-1 variants: I37T. Particulars: mean ± SD of three independent experiments, SD. As for the experimental part: as §1
Assay [6] has as its system HIV-1 NL4-3 I37T/N43K. As to the kind of experiment: Inhibition of T20-resistant HIV-1 variants: I37T/N43K. The following applies: mean ± SD of three independent experiments. As for the experimental part:
as §1

The test system of assay [7] is HIV-1 NL4-3 D36S/V38M. As to the kind of experiment: Inhibition of T20-resistant HIV-1 variants: D36S/V38M. The following applies: mean ± SD of three independent experiments, SD. As for the experimental part:
as §1

The subject of assay [8] is HIV-1 NL4-3 V38M. Briefly: Inhibition of T20-resistant HIV-1 variants: V38M. Particulars: mean ± SD of three independent experiments, SD. As for the experimental part: as §1
The subject of assay [9] is HIV-1 NL4-3 WT. As to the kind of experiment: Inhibition of T20-resistant HIV-1 variants panel: WT. The following applies: mean ± SD of three independent experiments, SD. As for the experimental part:
as §1

Assay [10] concerns HIV-1 NL4-3 Q40H. Briefly: Inhibition of T20-resistant HIV-1 variants: Q40H. Particulars: mean ± SD of three independent experiments, SD. As for the experimental part:
as §1

Assay [11] has as its system HIV-1 NL4-3 V38A. As to the kind of experiment: Inhibition of T20-resistant HIV-1 variants: V38A. The following applies: mean ± SD of three independent experiments, SD. As for the experimental part:
as §1

For the compound `CC[C@H](C)[C@H](NC(=O)[C@H](CCC(=O)O)NC(=O)[C@H](CCCNC(=N)N)NC(=O)[C@H](CCC(=O)O)NC(=O)[C@H](Cc1c[nH]c2ccccc12)NC(=O)[C@H](CCC(=O)O)NC(=O)[C@H](CCSC)NC(=O)[C@H](Cc1c[nH]c2ccccc12)NC(=O)[C@@H](NC(=O)[C@H](CCSC)NC(=O)[C@H](CCC(=O)O)NC(=O)[C@H](CC(N)=O)NC(=O)[C@H](Cc1c[nH]c2ccccc12)NC(=O)[C@H](CCC(=O)O)NC(=O)[C@@H](NC(C)=O)C(C)C)[C@@H](C)O)C(=O)N[C@@H](CCC(=O)O)C(=O)N[C@@H](CC(N)=O)C(=O)N[C@@H](Cc1ccc(O)cc1)C(=O)N[C@H](C(=O)N[C@@H](CCCCN)C(=O)N[C@@H](CC(C)C)C(=O)N[C@H](C(=O)N[C@@H](Cc1ccc(O)cc1)C(=O)N[C@@H](CCCCN)C(=O)N[C@H](C(=O)N[C@@H](CC(C)C)C(=O)N[C@@H](CCC(=O)O)C(=O)N[C@@H](CCC(=O)O)C(=O)N[C@@H](CO)C(=O)N[C@@H](CCC(N)=O)C(=O)N[C@@H](CCC(=O)O)C(=O)N[C@@H](CCC(N)=O)C(N)=O)[C@@H](C)CC)[C@@H](C)CC)[C@@H](C)O` [CP32M] (Ac-VEWNEMTWMEWEREIENYTKLIYKILEESQEQ-NH2), the 50% inhibitory concentration (IC50) turned out to be 1.8 ± 0.2 nM in [1] and 1 ± 0.2 nM in assay [2].
Take `CC[C@H](C)[C@H](NC(=O)[C@H](C)NC(=O)[C@H](CCCNC(=N)N)NC(=O)[C@H](CC(=O)O)NC(=O)[C@H](Cc1c[nH]c2ccccc12)NC(=O)[C@H](C)NC(=O)[C@H](CCC(=O)O)NC(=O)[C@H](Cc1c[nH]c2ccccc12)NC(=O)[C@@H](NC(=O)[C@@H](NC(C)=O)[C@@H](C)O)[C@@H](C)O)C(=O)N[C@@H](C)C(=O)N[C@@H](CCC(=O)O)C(=O)N[C@@H](Cc1ccc(O)cc1)C(=O)N[C@@H](C)C(=O)N[C@@H](C)C(=O)N[C@@H](CCCNC(=N)N)C(=O)N[C@H](C(=O)N[C@@H](CCC(=O)O)C(=O)N[C@@H](C)C(=O)N[C@@H](CC(C)C)C(=O)N[C@H](C(=O)N[C@@H](CCCNC(=N)N)C(=O)N[C@@H](C)C(=O)N[C@@H](C)C(=O)N[C@@H](CCC(N)=O)C(=O)N[C@@H](CCC(=O)O)C(=O)N[C@@H](CCC(N)=O)C(=O)N[C@@H](CCC(N)=O)C(=O)N[C@@H](CCC(=O)O)C(=O)N[C@@H](CCCCN)C(=O)N[C@@H](CC(N)=O)C(=O)N[C@@H](CCC(=O)O)C(=O)N[C@@H](C)C(=O)N[C@@H](C)C(=O)N[C@@H](CC(C)C)C(=O)N[C@@H](CCCNC(=N)N)C(=O)N[C@@H](CCC(=O)O)C(=O)N[C@@H](CC(C)C)C(N)=O)[C@@H](C)CC)[C@@H](C)CC` [T2635]: the IC50 in [1] was 1.1 ± 0.1 nM.
Turning to `CC[C@H](C)[C@H](NC(=O)[C@H](CC(C)C)NC(=O)[C@H](CCC(=O)O)NC(=O)[C@H](CCC(=O)O)NC(=O)[C@@H](NC(=O)[C@H](CCCCN)NC(=O)[C@H](CCCCN)NC(=O)[C@@H](NC(=O)[C@H](Cc1ccc(O)cc1)NC(=O)[C@H](CCC(=O)O)NC(=O)[C@H](CCC(=O)O)NC(=O)[C@@H](NC(=O)[C@H](CCCCN)NC(=O)[C@H](CCCCN)NC(=O)[C@H](CC(=O)O)NC(=O)[C@H](Cc1c[nH]c2ccccc12)NC(=O)[C@H](CCC(=O)O)NC(=O)[C@H](CCC(=O)O)NC(=O)[C@H](Cc1c[nH]c2ccccc12)NC(=O)[C@@H](NC(=O)[C@H](CCSC)NC(C)=O)[C@@H](C)O)[C@@H](C)CC)[C@@H](C)O)[C@@H](C)CC)C(=O)N[C@@H](CCCCN)C(=O)N[C@@H](CCCCN)C(=O)N[C@@H](CO)C(N)=O` [MT-SC22EK] (Ac-MTWEEWDKKIEEYTKKIEELIKKS-NH2), the IC50 in assay [1] worked out at 2.1 ± 0.2 nM; in [2], 1.1 ± 0.1 nM. Besides, in [3], the “peptide concentration reached during in vitro selection of resistant virus” value was approximately 100 nM.
Consider `CC[C@H](C)[C@H](NC(=O)[C@H](CCC(=O)O)NC(=O)[C@H](CCCNC(=N)N)NC(=O)[C@H](CCC(=O)O)NC(=O)[C@H](Cc1c[nH]c2ccccc12)NC(=O)[C@@H](NC(=O)[C@H](CCC(=O)O)NC(=O)[C@H](Cc1c[nH]c2ccccc12)NC(=O)[C@H](CO)NC(C)=O)[C@@H](C)O)C(=O)N[C@@H](CCC(=O)O)C(=O)N[C@@H](CC(N)=O)C(=O)N[C@@H](Cc1ccc(O)cc1)C(=O)N[C@H](C(=O)N[C@@H](CCCNC(=N)N)C(=O)N[C@@H](CCC(N)=O)C(=O)N[C@H](C(=O)N[C@@H](Cc1ccc(O)cc1)C(=O)N[C@@H](CCCNC(=N)N)C(=O)N[C@H](C(=O)N[C@@H](CC(C)C)C(=O)N[C@@H](CCC(=O)O)C(=O)N[C@@H](CCC(=O)O)C(=O)N[C@@H](CO)C(=O)N[C@@H](CCC(N)=O)C(=O)N[C@@H](CCC(=O)O)C(=O)N[C@@H](CCC(N)=O)C(=O)N[C@@H](CCC(N)=O)C(=O)N[C@@H](CC(=O)O)C(=O)N[C@@H](CCCNC(=N)N)C(=O)N[C@@H](CC(N)=O)C(=O)N[C@@H](CCC(=O)O)C(=O)N[C@@H](CCCNC(=N)N)C(=O)N[C@@H](CC(=O)O)C(=O)N[C@@H](CC(C)C)C(=O)N[C@@H](CC(C)C)C(=O)N[C@@H](CCC(=O)O)C(N)=O)[C@@H](C)CC)[C@@H](C)CC)[C@@H](C)O` [SFT, Sifuvirtide] (Ac-SWETWEREIENYTRQIYRILEESQEQQDRNERDLLE-NH2), for which the IC50 in [1] came out at 2.6 ± 0.1 nM; in assay [2], 1.5 ± 0.1 nM.
As to enfuvirtide, the IC50 in assay [4] was 367 ± 47.4 nM; in assay [5], 552 ± 123 nM; in [6], more than 2250 nM; in assay [7] it was 203 ± 12.6 nM; in [8], 378 ± 41.7 nM; in [9], 52.1 ± 8.5 nM. The IC50 in assay [2] was 48.6 ± 1.2 nM; in assay [10], 1320 ± 92.3 nM; in assay [11], 1840 ± 56.1 nM.

Broadly, the IC50 is the concentration needed to halve the response being measured.
